Here are results for 11 compounds from ChEMBL document CHEMBL1201862, “PubChem BioAssay data set” (2004).

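Following 48 hours of exposure in 96-well plates, responses at five concentrations were used to interpolate endpoints linearly. At the GI50, growth is halved.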 Active and inactive are the calls of the source. No stated cut-off is given here; in the data, active = GI50 up to about 1.1 µM and inactive = higher. A value given as a limit tells only on which side of the number the result lay.

Holding throughout (assay): NCI tumour cell line growth inhibition, 48 h
Assay [1] deals with RXF 393.
For assay [2], the system named is EKVX.
The subject of assay [3] is NCI/ADR-RES.
Assay [4] concerns HCC 2998.
For assay [5], the system named is M14.
For assay [6], the system named is T47D.
In assay [7] the test system is A549.
The subject of assay [8] is SN12C.
The subject of assay [9] is MCF7.
Assay [10] relates to OVCAR-5.
Assay [11] has as its system HCT-15.
In assay [12] the test system is 786-0.
Assay [13] concerns DU-145.
Assay [14] relates to SK-OV-3.
Assay [15] relates to MDA-MB-435.
For assay [16], the system named is UO-31.
The test system of assay [17] is MOLT-4.
Assay [18] deals with SF-268.
For assay [19], the system named is OVCAR-3.

`CNC(=O)Nn1c(SC)nc2ccccc21`: the GI50 in [1], in assay [2], in assay [3], in assay [4], in [5] and in assay [6] was > 100 µM (inactive) each time. For the same compound, the GI50 in assay [7] was > 100 µM (inactive); in [8], > 100 µM (inactive); in assay [9], > 100 µM (inactive); in assay [10], > 100 µM (inactive); in assay [11], over 100 µM; in [12] it was > 100 µM (inactive). Besides, the GI50 in [13], in assay [14], in [15], in [16], in [17] and in assay [18] was > 100 µM (inactive) throughout.

With `O=[N+]([O-])c1cc2c(c([N+](=O)[O-])c1)NCc1ccccc1O2`, the GI50 is 16 µM (inactive) in assay [1]; > 100 µM (inactive) in [2]; > 100 µM (inactive) in [3]; > 100 µM (inactive) in assay [4]; > 100 µM (inactive) in [6]; > 100 µM (inactive) in [7]. For the same compound, the GI50 in assay [8] is > 100 µM (inactive); in assay [9] it was > 100 µM (inactive); in [10] it was > 100 µM (inactive); in assay [11], over 100 µM; in assay [12] it was 43.4 µM (inactive); in [13] it was > 100 µM (inactive). The GI50 in [15] was > 100 µM (inactive); in assay [16], > 100 µM (inactive); in [17], 59.2 µM (inactive); in [18], > 100 µM (inactive); in assay [19], > 100 µM (inactive).

For the compound `O=C1OC2(c3ccccc31)c1cc(I)c(O)c(I)c1Oc1c2cc(I)c(O)c1I` [ERYTHROSINE], the GI50 in assay [1] was 5.79 µM (inactive); in assay [2], > 100 µM (inactive); in [3] it was > 100 µM (inactive); in [5], 68.2 µM (inactive); in [6] it was > 100 µM (inactive); in assay [7], > 100 µM (inactive). Further, the GI50 in assay [8] is > 100 µM (inactive); in assay [9] it was > 100 µM (inactive); in [10] it was > 100 µM (inactive); in assay [11] it was 31.3 µM; in assay [12], > 100 µM (inactive); in assay [13], > 100 µM (inactive). Also, the GI50 in assay [14] was > 100 µM (inactive); in assay [15], > 100 µM (inactive); in assay [16] it was > 100 µM (inactive); in assay [17], > 100 µM (inactive); in [18] it was > 100 µM (inactive); in assay [19], 5.46 µM (inactive).

For the compound `CCCCCCCCCc1cccc(N2C(N)=NC(N)=NC2(C)C)c1`, the GI50 in assay [1] was 1.95 µM (inactive); in assay [2], < 0.0329 µM (active); in assay [3] it was 4.62 µM (inactive); in assay [4] it was < 0.01 µM (active); in assay [5] it was < 0.01 µM (active); in [6], 0.528 µM (active). Moreover, the GI50 in assay [7] is < 0.01 µM (active); in assay [8], 0.0198 µM (active); in assay [9] it was < 0.0204 µM (active); in assay [11] it was under 0.01 µM; in assay [12], < 0.01 µM (active); in assay [13], < 0.0307 µM (active). Also, the GI50 in assay [14] was 1.62 µM (inactive); in [15] it was 0.0165 µM (active); in assay [16], 1.93 µM (inactive); in assay [17], < 0.0273 µM (active); in assay [18], < 0.023 µM (active); in assay [19], 0.0547 µM (active).

For `Cc1ccc(-c2cc(-c3c(C)nn(C)c(=O)c3N)n[nH]2)cc1`, the GI50 is > 100 µM (inactive) in assay [1]; 83 µM (inactive) in assay [2]; > 100 µM (inactive) in [3]; > 100 µM (inactive) in assay [4]; > 100 µM (inactive) in [5]; 53.5 µM (inactive) in [6]. In addition, the GI50 in [7] was > 100 µM (inactive); in assay [8] it was > 100 µM (inactive); in assay [9], > 100 µM (inactive); in assay [10], > 100 µM (inactive); in [11] it was over 100 µM; in assay [12] it was > 100 µM (inactive). The GI50 in assay [13] is > 100 µM (inactive); in [14] it was > 100 µM (inactive); in assay [15], > 100 µM (inactive); in [17], > 100 µM (inactive); in [18] it was > 100 µM (inactive); in assay [19], 88.3 µM (inactive).

Consider `CCC(/C=C/c1ccccc1)=N\NC(=S)N/N=C(/C=C/c1ccccc1)CC`, for which the GI50 was 38.5 µM (inactive) in assay [1]; > 100 µM (inactive) in [2]; 29.6 µM (inactive) in [3]; 84.1 µM (inactive) in assay [4]; 46.1 µM (inactive) in assay [5]; 35.9 µM (inactive) in assay [6]. Moreover, the GI50 in assay [7] is 17.2 µM (inactive); in assay [8] it was 36.6 µM (inactive); in assay [9], 41.8 µM (inactive); in assay [11] it was 26.5 µM; in assay [12] it was 48 µM (inactive); in assay [13], 26.1 µM (inactive). For the same compound, the GI50 was 20.1 µM (inactive) in assay [14]; 46.5 µM (inactive) in [15]; 13 µM (inactive) in assay [16]; 5.51 µM (inactive) in [17]; 12.8 µM (inactive) in [18]; 22.9 µM (inactive) in [19].

Regarding `COC(=O)/C=C\[C@H]1[C@H](C)N1S(=O)(=O)c1ccc(C)cc1` (stereo partly drawn), the GI50 in [1], in assay [2], in [3], in assay [4], in assay [5] and in assay [6] was > 100 µM (inactive) throughout. Moreover, the GI50 was > 100 µM (inactive) in [7]; > 100 µM (inactive) in [8]; > 100 µM (inactive) in assay [9]; > 100 µM (inactive) in assay [10]; 70.3 µM in assay [11]; > 100 µM (inactive) in assay [12]. Moreover, the GI50 in assay [13], in assay [14], in assay [15], in assay [17], in [18] and in assay [19] was > 100 µM (inactive) in each case.

With `O=C1NC(N2CCOCC2)=N/C1=C\c1ccccc1`, the GI50 in assay [2], in [3], in assay [4], in assay [5], in assay [6] and in assay [7] was > 100 µM (inactive) each time. For the same compound, the GI50 was > 100 µM (inactive) in assay [8]; > 100 µM (inactive) in assay [9]; > 100 µM (inactive) in assay [10]; over 100 µM in [11]; > 100 µM (inactive) in assay [12]; > 100 µM (inactive) in [13]. In addition, the GI50 in [14], in assay [15], in assay [16], in assay [17], in assay [18] and in [19] was > 100 µM (inactive) throughout.

Regarding `C/C(=N\NC(=O)c1ccccc1O)c1cccc(/C(C)=N/NC(=O)c2ccccc2O)n1`, the GI50 is 8.55 µM (inactive) in assay [1]; 13.8 µM (inactive) in assay [2]; 27.6 µM (inactive) in assay [3]; 1.02 µM (active) in assay [4]; 12.6 µM (inactive) in assay [5]; 4.24 µM (inactive) in assay [6]. The GI50 was 9.23 µM (inactive) in [7]; 6.07 µM (inactive) in assay [8]; 26.2 µM (inactive) in assay [9]; 7.55 µM in assay [11]; 5.32 µM (inactive) in [12]; 13.3 µM (inactive) in assay [13]. The GI50 in assay [14] was 4.12 µM (inactive); in assay [15], 41.8 µM (inactive); in assay [17], 0.955 µM (active); in [18], 3.41 µM (inactive).

Consider `Cc1cc([C@H](C#N)c2nc3ccccc3[nH]2)nc(Cl)n1`, for which the GI50 was 33.3 µM (inactive) in assay [1]; 62.2 µM (inactive) in assay [2]; 30.1 µM (inactive) in assay [3]; 20.3 µM (inactive) in assay [4]; 21.3 µM (inactive) in [6]; 33.9 µM (inactive) in assay [7]. The GI50 was 51.2 µM (inactive) in [8]; 41.8 µM (inactive) in assay [9]; 25.8 µM in assay [11]; 54.5 µM (inactive) in assay [12]; 30.6 µM (inactive) in assay [13]; > 100 µM (inactive) in [14]. Also, the GI50 is 30.4 µM (inactive) in assay [15], 35.6 µM (inactive) in [16], > 100 µM (inactive) in assay [17] and > 100 µM (inactive) in assay [18].

Consider `COc1ccc2c(CC(=O)O)cc(=O)oc2c1`, for which the GI50 in assay [1], in [2], in [3], in assay [4], in [5] and in assay [6] was > 100 µM (inactive) throughout. Further, the GI50 in assay [7] is > 100 µM (inactive); in assay [8] it was > 100 µM (inactive); in assay [9] it was > 100 µM (inactive); in assay [10], > 100 µM (inactive); in assay [11], over 100 µM; in assay [12] it was > 100 µM (inactive). The GI50 in [13], in assay [15], in [16], in [17], in assay [18] and in [19] was > 100 µM (inactive) in each case.
